How the values were obtained:
[1] = target: T1, Nuclear factor erythroid 2-related factor 2 (Homo sapiens) (UniProt Q16236); test: Induction of Nrf2-mediated ARE activity in human HepG2-ARE-C8 cells at 10 uM after 12 hrs by luciferase reporter gene assay relative to control; assay type: cell-based
T1 sequence (whole entry): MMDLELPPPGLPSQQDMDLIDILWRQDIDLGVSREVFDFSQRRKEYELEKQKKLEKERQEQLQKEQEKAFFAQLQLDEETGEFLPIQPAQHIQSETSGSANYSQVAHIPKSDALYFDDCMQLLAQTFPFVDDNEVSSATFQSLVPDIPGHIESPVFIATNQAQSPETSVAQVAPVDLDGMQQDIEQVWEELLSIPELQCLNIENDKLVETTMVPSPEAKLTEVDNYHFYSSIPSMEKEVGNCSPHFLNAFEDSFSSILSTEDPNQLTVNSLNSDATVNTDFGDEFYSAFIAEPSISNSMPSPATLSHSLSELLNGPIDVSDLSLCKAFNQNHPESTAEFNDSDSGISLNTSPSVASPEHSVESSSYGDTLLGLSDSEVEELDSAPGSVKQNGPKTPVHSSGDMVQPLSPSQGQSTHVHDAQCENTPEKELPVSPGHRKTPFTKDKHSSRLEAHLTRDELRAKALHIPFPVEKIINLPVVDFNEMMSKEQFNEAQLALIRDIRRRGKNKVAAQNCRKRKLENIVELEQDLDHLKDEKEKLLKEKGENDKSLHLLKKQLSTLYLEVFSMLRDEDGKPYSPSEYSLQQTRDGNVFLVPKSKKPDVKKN

[2] = target: T1, Nuclear factor erythroid 2-related factor 2 (Homo sapiens); test: Induction of Nrf2-mediated ARE activity in human HepG2-ARE-C8 cells at 5 uM after 12 hrs by luciferase reporter gene assay relative to control; assay type: cell-based
[3] = target: T1, Nuclear factor erythroid 2-related factor 2 (Homo sapiens); test: Induction of Nrf2-mediated ARE activity in human HepG2-ARE-C8 cells at 1 uM after 12 hrs by luciferase reporter gene assay relative to control; assay type: cell-based
[4] = target: T1, Nuclear factor erythroid 2-related factor 2 (Homo sapiens); test: Induction of Nrf2-mediated ARE activity in human HepG2-ARE-C8 cells at 0.1 uM after 12 hrs by luciferase reporter gene assay relative to control; assay type: cell-based
[5] = target: T1, Nuclear factor erythroid 2-related factor 2 (Homo sapiens); test: Induction of Nrf2-mediated ARE activity in human HepG2-ARE-C8 cells at 0.01 uM after 12 hrs by luciferase reporter gene assay relative to control; assay type: cell-based
[6] = test system: HCT-116; test: Induction of NQO1 expression in human HCT116 cells up to 24 hrs by Western blot analysis; assay type: functional, cell-based
[7] = test system: HCT-116; test: Induction of HO-1 expression in human HCT116 cells up to 8 hrs by Western blot analysis; assay type: functional, cell-based

SMILES	fold change (FC) [1]	fold change (FC) [2]	fold change (FC) [3]	fold change (FC) [4]	fold change (FC) [5]	Activity [6]	Activity [7]
COc1ccccc1C(=O)/C=C1\NCC2c3ccccc3CCN2C1=O (configuration not stated)	1.99	1.78	1.51	1.68	0.96		
COc1cc2c(cc1OC)C1CN/C(=C\C(=O)c3ccc(F)cc3)C(=O)N1CC2 (configuration not stated)	1.25	1.82	2.7	1.42	1.25		
O=C(/C=C1\NCC2c3ccccc3CCN2C1=O)c1ccccc1Cl (configuration not stated)	6.04	5.46	2.77	2.19	1.19		
COc1ccc2c(c1)CCN1C(=O)/C(=C/C(=O)c3ccccc3)NCC21 (configuration not stated)	5.36	8.18	3.8	1.7	0.65		
COc1ccc2c(c1)CCN1C(=O)/C(=C/C(=O)c3cccc(F)c3)NCC21 (configuration not stated)	6.66	5.65	3.96	5.19	1.83		
Cc1ccc(C(=O)/C=C2\NCC3c4ccccc4CCN3C2=O)cc1 (configuration not stated)	5.22	4.42	3.25	3.3	2.01		
O=C(/C=C1\NCC2c3ccccc3CCN2C1=O)c1cccc(Br)c1 (configuration not stated)	15.7	12	8.97	3.4	3.1		

The next lines start with results.

fold change (FC) [1]	fold change (FC) [2]	fold change (FC) [3]	fold change (FC) [4]	fold change (FC) [5]	SMILES	Activity [6]	Activity [7]
3.81	2.43	1.76	2.34	1.2	O=C(/C=C1\NCC2c3ccccc3CCN2C1=O)c1ccc([N+](=O)[O-])cc1 (configuration not stated)		
2.51	1.44	1.03	1.08	1.31	COc1cc2c(cc1OC)C1CN/C(=C\C(=O)c3cccc([N+](=O)[O-])c3)C(=O)N1CC2 (configuration not stated)		
33	29.1	9.99	3.89	2.18	O=C(/C=C1\NCC2c3ccccc3CCN2C1=O)c1cccc(F)c1 (configuration not stated)	Dose-dependent effect	Dose-dependent effect
2.8	2.41	1.3	1.29	1.28	O=C(/C=C1\NCC2c3ccccc3CCN2C1=O)c1ccccc1[N+](=O)[O-] (configuration not stated)		
5.07	3.3	2.74	2.3	1.15	COc1ccc(C(=O)/C=C2\NCC3c4ccccc4CCN3C2=O)cc1 (configuration not stated)		
1.44	1.15	1.07	1.47	1.41	COc1cc2c(cc1OC)C1CN/C(=C\C(=O)c3cccc(Cl)c3)C(=O)N1CC2 (configuration not stated)		

Reference: ChEMBL document CHEMBL2429758, “3-aroylmethylene-2,3,6,7-tetrahydro-1H-pyrazino[2,1-a]isoquinolin-4(11bH)-ones as potent Nrf2/ARE inducers in human cancer cells and AOM-DSS treated mice” (J Med Chem, 2013)
